Measured values published in patent publication US9273033B2, “Substituted pyridone derivatives as PDE10 inhibitors” (Merck Sharp & Dohme Corp., priority 2012, dated 2016).
pKi: −log10 of the molar value.

Target: human PDE10A2 (Homo sapiens (Human), UniProt Q9Y233)
Test: PDE10 fluorescence polarization (IMAP FP) inhibition assay
Type: biochemical
Conditions: human PDE10A2, FAM-labeled cAMP substrate, read-out: PDE10A Ki
Summary of the method: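 Cytoplasmic lysate of AD293 cells transiently expressing human PDE10A2 (diluted to ~20% substrate conversion) incubated 30 min at room temperature with 50 nM FAM-cAMP in Tris pH 7.2 buffer with MgCl2, DTT. Activity read by IMAP fluorescence polarization. 0% inhibition set with 1% DMSO, 100% with reference PDE10 inhibitor.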

Chain of human PDE10A2 (Q9Y233 267-1055): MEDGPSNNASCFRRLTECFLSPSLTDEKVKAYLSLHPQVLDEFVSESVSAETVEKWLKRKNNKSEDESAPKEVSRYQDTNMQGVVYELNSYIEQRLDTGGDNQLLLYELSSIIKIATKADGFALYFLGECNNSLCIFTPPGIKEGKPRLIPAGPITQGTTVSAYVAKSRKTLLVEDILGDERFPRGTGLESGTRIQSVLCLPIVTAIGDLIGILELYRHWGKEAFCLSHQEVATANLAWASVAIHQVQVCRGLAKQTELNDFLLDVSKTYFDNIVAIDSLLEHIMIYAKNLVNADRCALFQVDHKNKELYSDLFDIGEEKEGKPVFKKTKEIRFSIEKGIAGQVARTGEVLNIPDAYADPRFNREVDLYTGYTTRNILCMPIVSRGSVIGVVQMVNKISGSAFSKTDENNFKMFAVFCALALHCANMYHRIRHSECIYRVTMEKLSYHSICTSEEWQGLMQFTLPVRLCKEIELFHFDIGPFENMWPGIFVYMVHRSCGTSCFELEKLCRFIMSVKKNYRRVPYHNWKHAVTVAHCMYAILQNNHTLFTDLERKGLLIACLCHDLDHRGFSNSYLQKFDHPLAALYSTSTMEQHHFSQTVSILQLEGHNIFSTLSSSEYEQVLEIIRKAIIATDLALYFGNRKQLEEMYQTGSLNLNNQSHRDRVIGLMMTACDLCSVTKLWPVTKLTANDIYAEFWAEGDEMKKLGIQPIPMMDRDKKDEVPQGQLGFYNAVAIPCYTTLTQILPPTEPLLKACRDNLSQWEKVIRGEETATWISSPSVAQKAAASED

| Compound | pKi |
| --- | --- |
| Cc1ccc([C@H]2C[C@@H]2COc2nc(C)ncc2-c2cc(=O)[nH]cc2C)nc1 [Example 71, 5-methyl-4-(2-methyl-4-(((1S,2S)-2-(5-methylpyridin-2-yl)cyclopropyl)methoxy)pyrimidin-5-yl)pyridin-2(1H)-one] | 9.00 |
| Cc1ccc([C@H]2C[C@@H]2COc2nc(C)ncc2-c2cc(=O)n(C)cc2C)nc1 [Example 72, 1,5-dimethyl-4-(2-methyl-4-(((1S,2S)-2-(5-methylpyridin-2-yl)cyclopropyl)methoxy)pyrimidin-5-yl)pyridin-2(1H)-one] | 8.67 |
| COc1ccc([C@H]2C[C@@H]2COc2nc(C)ncc2-c2cc(=O)n(C)cc2Cl)nc1 [Example 73, 5-chloro-4-(4-(((1S,2S)-2-(5-methoxypyridin-2-yl)cyclopropyl)methoxy)-2-methylpyrimidin-5-yl)-1-methylpyridin-2(1H)-one] | 8.95 |
| Cc1ncc(-c2cc(=O)[nH]cc2C)c(OC[C@H]2C[C@@H]2c2ccccn2)n1 [Example 75, 5-methyl-4-(2-methyl-4-(((1S,2S)-2-(pyridin-2-yl)cyclopropyl)methoxy)pyrimidin-5-yl)pyridin-2(1H)-one] | 8.08 |
| COc1ccc([C@H]2C[C@@H]2COc2nc(C)ncc2-c2cc(=O)[nH]cc2C)nc1 [Example 77, 4-(4-(((1S,2S)-2-(5-methoxypyridin-2-yl)cyclopropyl)methoxy)-2-methylpyrimidin-5-yl)-5-methylpyridin-2(1H)-one] | 9.21 |
| Cc1ccc([C@H]2C[C@@H]2COc2nc(C)ncc2-c2ccn(C)c(=O)c2)nc1 [Example 78, 1-methyl-4-(2-methyl-4-(((1S,2S)-2-(5-methylpyridin-2-yl)cyclopropyl)methoxy)pyrimidin-5-yl)pyridin-2(1H)-one] | 8.76 |
| Cc1ncc(-c2ccn(C)c(=O)c2)c(OC[C@H]2C[C@@H]2c2ccc3ccccc3n2)n1 [Example 79, 1-methyl-4-(2-methyl-4-(((1S,2S)-2-(quinolin-2-yl)cyclopropyl)methoxy)pyrimidin-5-yl)pyridin-2(1H)-one] | 10.52 |
| Cc1ncc(-c2ccn(C)c(=O)c2)c(OC[C@H]2C[C@@H]2c2ccccn2)n1 [Example 80, 1-methyl-4-(2-methyl-4-(((1S,2S)-2-(pyridin-2-yl)cyclopropyl)methoxy)pyrimidin-5-yl)pyridin-2(1H)-one] | 7.97 |
| Cc1ncc(-c2cc(=O)[nH]cc2C)c(OC[C@H]2C[C@@H]2c2ccc3ccccc3n2)n1 [Example 81, 5-methyl-4-(2-methyl-4-(((1S,2S)-2-(quinolin-2-yl)cyclopropyl)methoxy)pyrimidin-5-yl)pyridin-2(1H)-one] | 10.96 |
| COc1ccc([C@H]2C[C@@H]2COc2nc(C)ncc2-c2cc(=O)n(C)cc2C)nc1 [Example 82, 4-(4-(((1S,2S)-2-(5-methoxypyridin-2-yl)cyclopropyl)methoxy)-2-methylpyrimidin-5-yl)-1,5-dimethylpyridin-2(1H)-one] | 9.30 |
| COc1ccc([C@H]2C[C@@H]2COc2nc(C)ncc2-c2cc(=O)[nH]cc2Cl)nc1 [Example 83, 5-chloro-4-(4-(((1S,2S)-2-(5-methoxypyridin-2-yl)cyclopropyl)methoxy)-2-methylpyrimidin-5-yl)pyridin-2(1H)-one] | 9.41 |
| Cc1ncc(-c2ccn(C)c(=O)c2)c(OC[C@@H]2C[C@H]2c2ccc(F)cn2)n1 [Example 84, 4-(4-(((1R,2R)-2-(5-fluoropyridin-2-yl)cyclopropyl)methoxy)-2-methylpyrimidin-5-yl)-1-methylpyridin-2(1H)-one] | 7.05 |
| COc1ccc([C@H]2C[C@@H]2COc2nc(C)ncc2-c2cc(C)n(C)c(=O)c2)nc1 [Example 87, 4-(4-(((1S,2S)-2-(5-methoxypyridin-2-yl)cyclopropyl)mcthoxy)-2-methylpyrimidin-5-yl)-1,6-dimethylpyridin-2(1H)-one] | 9.11 |
| COc1ccc([C@H]2C[C@@H]2COc2nc(C)ncc2-c2cc(=O)n(C)cc2C#N)nc1 [Example 89, 4-(4-(((1S,2S)-2-(5-methoxypyridin-2-yl)cyclopropyl)methoxy)-2-methylpyrimidin-5-yl)-1-methyl-6-oxo-1,6-dihydropyridine-3-carbonitrile] | 8.13 |
| Cc1ccc([C@H]2C[C@@H]2COc2nc(C)ncc2-c2ccn(C(C)C)c(=O)c2)nc1 [Example 91, 1-isopropyl-4-(2-methyl-4-(((1S,2S)-2-(5-methylpyridin-2-yl)cyclopropyl)methoxy)pyrimidin-5-yl)pyridin-2(1H)-one] | 8.92 |
| COc1ccc([C@H]2C[C@@H]2COc2nc(C)ncc2-c2cc(=O)n(C)cc2SC)nc1 [Example 92, 4-(4-(((1S,2S)-2-(5-methoxypyridin-2-yl)cyclopropyl)methoxy)-2-methylpyrimidin-5-yl)-1-methyl-5-(methylthio)pyridin-2(1H)-one] | 7.90 |
| Cc1ncc(-c2ccn(C)c(=O)c2)c(OC[C@@H]2C[C@H]2c2ccc(OC(F)F)cn2)n1 [Example 94, 4-(4-(((1R,2R)-2-(5-(difluoromethoxy)pyridin-2-yl)cyclopropyl)methoxy)-2-methylpyrimidin-5-yl)-1-methylpyridin-2(1H)-one] | 7.00 |
| CCn1ccc(-c2cnc(C)nc2OC[C@H]2C[C@@H]2c2ccc3ccccc3n2)cc1=O [Example 96, 1-ethyl-4-(2-methyl-4-(((lS,2S)-2-(quinolin-2-yl)cyclopropyl)methoxy)pyrimidin-5-yl)pyridin-2(1H)-one] | 10.68 |
| Cc1ccc([C@H]2C[C@@H]2COc2nc(C)ncc2-c2cc(=O)n(C)cc2Cl)nc1 [Example 99, 5-chloro-1-methyl-4-(2-methyl-4-(((1S,2S)-2-(5-methylpyridin-2-yl)cyclopropyl)methoxy)pyrimidin-5-yl)pyridin-2(1H)-one] | 8.95 |
| COCCn1ccc(-c2cnc(C)nc2OC[C@H]2C[C@@H]2c2ccc(C)cn2)cc1=O [Example 101, 1-(2-methoxyethyl)-4-(2-mcthyl-4-(((1S,2S)-2-(5-methylpyridin-2-yl)cyclopropyl)methoxy)pyrimidin-5-yl)pyridin-2(lH)-one] | 9.40 |
| Cc1ncc(-c2cc(=O)n(C)cc2Cl)c(OC[C@H]2C[C@@H]2c2ccc3ccccc3n2)n1 [Example 102, 5-chloro-1-methyl-4-(2-methyl-4-(((1S,2S)-2-(quinolin-2-yl)cyclopropyl)methoxy)pyrimidin-5-yr)pyridin-2(1H)-one] | 10.40 |
| Cc1ncc(-c2ccn(C)c(=O)c2)c(OC[C@@H]2C[C@H]2c2ccc(Cl)cn2)n1 [Example 103, 4-(4-(((1R,2R)-2-(5-chloropyridin-2-yl)cyclopropyl)methoxy)-2-methylpyrimidin-5-yl)-1-methylpyridin-2(1H)-one] | 7.00 |

Continued by rising pKi, values first:

| pKi | Compound |
| --- | --- |
| 7.17 | COc1ccc([C@H]2C[C@@H]2COc2nc(C)ncc2-c2cc(=O)n(C)cc2S(C)(=O)=O)nc1 [Example 98, 4-(4-(((1S,2S)-2-(5-methoxypyridin-2-yl)cyclopropyl)methoxy)-2-methylpyrimidin-5-yl)-1-methyl-5-(methylsulfonyl)pyridin-2(1H)-one] |
| 7.56 | Cc1ncc(-c2ccn(C)c(=O)c2)c(OC[C@H]2C[C@@H]2c2ccc(F)cn2)n1 [Example 88, 4-(4-(((1S,2S)-2-(5-fluoropyridin-2-yl)cyclopropyl)methoxy)-2-methylpyrimidin-5-yl)-1-methylpyridin-2(1H)-one] |
| 7.78 | Cc1ncc(-c2cc(=O)n(C)cc2C)c(OC[C@H]2C[C@@H]2c2ccccn2)n1 [Example 74, 1,5-dimethyl-4-(2-methyl-4-(((1S,2S)-2-(pyridin-2-yl)cyclopropyl)methoxy)pyrimidin-5-yl)pyridin-2(1H)-one] |
| 8.04 | Cc1ncc(-c2ccn(C)c(=O)c2)c(OC[C@H]2C[C@@H]2c2ccc(OC(F)F)cn2)n1 [Example 90, 4-(4-(((1S,2S)-2-(5-(difluoromethoxy)pyridin-2-yl)cyclopropyl)methoxy)-2-methylpyrimidin-5-yl)-1-methylpyridin-2(1H)-one] |
| 8.52 | COc1ccc([C@H]2C[C@@H]2COc2nc(C)ncc2-c2cc(=O)n(C)cc2C(F)(F)F)nc1 [Example 93, 4-(4-(((1S,2S)-2-(5-methoxypyridin-2-yl)cyclopropyl)mcthoxy)-2-methylpyrimidin-5-yl)-1-methyl-5-(trifluoromethyl)pyridin-2(1H)-one] |
| 8.81 | Cc1ccc([C@H]2C[C@@H]2COc2nc(C)ncc2-c2cc(C)n(C)c(=O)c2)nc1 [Example 86, 1,6-dimethyl-4-(2-methyl-4-(((1S,2S)-2-(5-methylpyridin-2-yl)cyclopropyl)methoxy)pyrimidin-5-yl)pyridin-2(1H)-one] |
| 9.12 | CCn1ccc(-c2cnc(C)nc2OC[C@H]2C[C@@H]2c2ccc(OC)cn2)cc1=O [Example 95, 1-ethyl-4-(4-(((1S,2S)-2-(5-methoxypyridin-2-yl)cyclopropyl)methoxy)-2-methylpyrimidin-5-yl)pyridin-2(1H)-one] |
| 9.36 | COCCn1ccc(-c2cnc(C)nc2OC[C@H]2C[C@@H]2c2ccc(C)cn2)cc1=O [Example 85, 1-(2-methoxyethyl)-4-(2-methyl-4-(((1S,2S)-2-(5-methylpyridin-2-yl)cyclopropyl)methoxy)pyrimidin-5-yl)pyridin-2(1H)-one] |
| 10.39 | Cc1ncc(-c2cc(C)n(C)c(=O)c2)c(OC[C@H]2C[C@@H]2c2ccc3ccccc3n2)n1 [Example 97, 1,6-dimethyl-4-(2-methyl-4-(((1S,2S)-2-(quinolin-2-yl)cyclopropyl)methoxy)pyrimidin-5-yl)pyridin-2(1H)-one] |
| 10.46 | Cc1ncc(-c2cc(=O)n(C)cc2C)c(OC[C@H]2C[C@@H]2c2ccc3ccccc3n2)n1 [Example 76, 1,5-dimethyl-4-(2-methyl-4-(((1S,2S)-2-(quinolin-2-yl)cyclopropyl)methoxy)pyrimidin-5-yl)pyridin-2(1H)-one] |
| 10.92 | COCCn1ccc(-c2cnc(C)nc2OC[C@H]2C[C@@H]2c2ccc3ccccc3n2)cc1=O [Example 100, 1-(2-methoxyethyl)-4-(2-methyl-4-(((1S,2S)-2-(quinolin-2-yl)cyclopropyl)methoxy)pyrimidin-5-yl)pyridin-2(1H)-one] |
